Laboratory results: US20260053782A1, “TREATMENT REGIMENS FOR PARKINSON'S DISEASE” (BIAL - PORTELA & CA, S.A., priority 2022, published 2026)

Key:
[1] = Levodopa pharmacokinetics over 12 hours after 2 weeks of each LD/CD regimen with or without opicapone 50 mg (Phase II open-label trial); conditions: human, in vivo
Procedure: The invention was discovered through a Phase IL, randomized, open-label trial evaluating the effect of opicapone (50 mg once-daily) on L-DOPA pharmacokinetics in Parkinson's disease patients with end-of-dose motor fluctuations taking different levodopa/carbidopa (LD/CD) sparing regimens (EudraCT number: 2020-003139-12).
Following screening, all subjects received an LD/CD dose and regimen of 100/25 mg QD5 (giving a total daily dose of 500/125 mg) fixed every 3 hours (from 8:00 to 20:00) for 14±2 days. This is the reference regimen. […]
The pharmacokinetic parameters assessed for each of the regimens included maximum observed plasma concentration (Cmax), time to achieve peak plasma levels (tmax), minimum observed plasma concentration (Cmin), plasma elimination half-life (t1/2), area under the curve (AUC) and fluctuation index (FI, as an expression of peak-to-trough fluctuation, Cmax and Cmin relative to average concentration Cavg).

[2] = test system: Parkinson's disease patients with end-of-dose motor fluctuations; assay: 12-hour patient ON/OFF monitoring registered by investigators on pharmacokinetics days; type: in vivo, human; conditions: addition of opicapone; overall summary
Source text: Subjects were aged ≥30 years with a clinical diagnosis of idiopathic Parkinson's disease according to the United Kingdom Parkinson's Disease Society Brain Bank Clinical Diagnostic Criteria with disease severity stage 1-3 (according to modified Hoehn & Yahr staging) at ON and with end-of-dose motor fluctuations and signs of “wearing off”. Subjects were receiving treatment with levodopa/DDCI for at least 1 year with clear clinical improvement.
Clinical and safety/tolerability outcomes were also assessed as exploratory secondary outcomes. Clinical outcomes included ON and OFF-time assessed using patient-rated tools. The timing of ON and OFF state was registered (in real time) by the investigators during the matching 12-hour pharmacokinetic evaluation, as such applied on the pharmacokinetics days only), and patients also completed 24-hour Hauser ON/OFF diary charts (in 30 minute blocks) during the three days before each pharmacokinetic visit. […] In addition, the patient global impression of change (PGI-C) of opicapone 50 mg was evaluated at the end of the LD/CD 400/100 mg plus opicapone treatment, compared to before the start of the opicapone treatment. […]
All study assessments were evaluated for each LD/CD 400/100 mg plus 50 mg opicapone treatment regimen, compared to the LD/CD 500/125 mg without opicapone regimen.

[3] = test system: patients suffering from early idiopathic Parkinson's disease; conditions: addition of entacapone vs levodopa-only therapy; levodopa-naïve patients; cited from earlier work
[4] = cited from earlier work

In the case of `Cc1c(Cl)c(C)[n+]([O-])c(Cl)c1-c1noc(-c2cc(O)c(O)c([N+](=O)[O-])c2)n1` [opicapone], the “difference in levodopa tmax” value [1] is reported as “no impact”, the “increase in levodopa t1/2” value [1] is reported as “at least doubled” and the OFF time [2] is reported as “reduced OFF time”. The ON time [2] was “increased ON time”.
For `CCN(CC)C(=O)/C(C#N)=C/c1cc(O)c(O)c([N+](=O)[O-])c1` [entacapone], the frequency of dyskinesia [3] is given as “increased frequency of dyskinesia”.
For `N[C@@H](Cc1ccc(O)c(O)c1)C(=O)O` [levodopa, L-3,4-dihydroxyphenylalanine], the “half-life of oral levodopa” value [4] is listed as 1 to 1.5 h.
